According to patent US20030003114A1, “Enzyme-based anti-cancer compositions and methods” (priority 2001, published 2003):

Assays:
[1] = test system: 24 JK murine sarcoma cells; experiment: Syngeneic tumor model, 24 JK murine sarcoma in C57BL/6 mice; design: anti-tumor effectiveness: dose or concentration left out as unconfirmed
Description: In the case where a hexosaminidase is tested for anti-tumor activity on murine tumor cells or tissues, a syngeneic tumor model is used. In this model, tumor cells or tissues are implanted in C57BL/6 mice. As in the SCID mouse model described above, the implanted tumors are allowed to grow to a size of approximately 50 to 100 mm^3 before various amounts of the hexosaminidase are administered to the animal, by any of the means described above. The decrease in tumor size or, preferably, elimination of the tumor from the mouse, is subsequently observed.
In both the SCID and C57BL/6 models described above, the anti-tumor activity of a hexosaminidase is compared to the anti-tumor activity of a known anti-tumor agent. For example, mice containing tumors are treated with doxorubicin. A suitable dose of doxorubicin is 5 mg per kg of body weight of the mice.
A syngeneic tumor model, C57BL/6 mice carrying implanted 24 JK murine sarcoma cells, was used in these studies. The cells were injected subcutaneously into the mouse flank. Five days later, 5 units of chitinase was injected intraperitoneally (IP) into the mouse. Into another mouse was injected 5 mg doxorubicin per kilogram of mouse weight IP on days 5, 7 and 9. Into a third mouse was injected saline on day 5 (i.e., negative control).

[2] = test system: Moderately differentiated adenocarcinoma from human colon; experiment: Human colon cancer xenograft in SCID mice, tumor size; type: in vivo; details: 5 units injected into the tumor (day 1), FIG. 2
Description: (§1) The effect of hexosaminidases on survival of tumor cells is also tested by administering hexosaminidases to experimental animals that have various tumors. Preferably, the tumors are human tumors or cancer xenograft tissues and the experimental animal is a SCID mouse. Good results have been obtained by transplanting tumor cells or tissues subcutaneously in the animal or behind the fat pad of the mouse. After the tumor cells or tissues are transplanted into the animal, the tumors cells grow and divide. When the tumors reach a visible size (e.g., 0.5-0.8 cm^3) in the SCID mice, a hexosaminidase is dissolved in PBS and various amounts of the hexosaminidase are injected into the tumor (i.e., intratumor injection), injected intraperitoneally (IP) into the animal, or intravenously (IV) into the animal. Single or multiple injections are used. The size of the tumor is subsequently measured to determine the effect of the enzyme on tumor growth and survival. A decrease in size of the tumors is indicative of anti-tumor activity of the hexosaminidase. Preferably, administration of the hexosaminidase results in a significant size reduction of the tumor. […]
Moderately differentiated adenocarcinoma from human colon was obtained from patients as a biopsy sample and a 0.1 cm^3 piece of the biopsy was implanted into SCID mice. […] Subsequently, the size of the tumors was measured daily.

[3] = Chitinase levels in blood of mice after different routes of administration (4-mu-chitotrioside assay of plasma); type: in vivo; details: mouse
Description: Thirty-five mg of chitinase (Sigma C-6139) was dissolved in 1.5 ml of PBS. One-half ml of the chitinase solution was injected into each of 3 mice. One mouse was injected intraperitoneally (IP), one was injected intravenously (IV), and one mouse was injected subcutaneously (SC). A fourth mouse was injected with saline as a control. At various times after injection, 15-20 μl of blood was taken from the tail vein of each mouse and immediately mixed with a sodium-EDTA solution (pH 7.4). The cells were centrifuged from the blood and 5 μl of plasma was used in a chitinase assay. In the chitinase assay, 4-methylumbelliferyl-β-D-N, N′, N″-triacetyl-chitotriose (4-mu-chitotrioside) was used as the substrate for chitinase. The plasma sample, in 100 μl of saline, was mixed with 100 μl of 22 μM 4-mu-chitotrioside solution in 0.2 M citric acid buffer (pH 5.2) and incubated in a 37° C. water bath for 15 min. At the end of the incubation, 3.0 ml of 0.3 M glycine buffer (pH 10.6) was added to the mixture to stop the reaction. The fluorescence of the solution at 460 nm was then measured after excitation at 355 nm.

[4] = test system: Moderately differentiated adenocarcinoma from prostate; experiment: Human prostate cancer xenograft in SCID mice, tumor size; type: in vivo; details: 5 units injected into the tumor (day 1), FIG. 2
Description: as §1
Moderately differentiated adenocarcinoma from prostate was obtained from patients as a biopsy sample and a 0.1 cm^3 piece of the biopsy was implanted into SCID mice. […] Subsequently, the size of the tumors was measured daily.

lung cancer cells = experiment: Cultured tumor cells treated with chitinase, cellular damage (electron micrographs); type: cell-based, human; details: within hours of treatment, ultimately leading to cell death
[5] = test system: Adenocarcinoma from ovaries; experiment: Human ovarian cancer xenograft in SCID mice, tumor size; type: in vivo; details: 5 units injected into the tumor (day 1)
Description: as §1
Adenocarcinoma from ovaries was obtained from patients as a biopsy sample and a 0.1 cm^3 piece of the biopsy was implanted into SCID mice. […] Subsequently, the size of the tumors was measured daily.

[6] = test system: LNCaP prostate cancer cells; experiment: LNCaP prostate cancer cell tumors in SCID mice; type: in vivo, human
Description: The effect of hexosaminidases on survival of tumor cells is also tested by administering hexosaminidases to experimental animals that have various tumors. Preferably, the tumors are human tumors or cancer xenograft tissues and the experimental animal is a SCID mouse. Good results have been obtained by transplanting tumor cells or tissues subcutaneously in the animal or behind the fat pad of the mouse. After the tumor cells or tissues are transplanted into the animal, the tumors cells grow and divide. When the tumors reach a visible size (e.g., 0.5-0.8 cm^3) in the SCID mice, a hexosaminidase is dissolved in PBS and various amounts of the hexosaminidase are injected into the tumor (i.e., intratumor injection), injected intraperitoneally (IP) into the animal, or intravenously (IV) into the animal. Single or multiple injections are used. The size of the tumor is subsequently measured to determine the effect of the enzyme on tumor growth and survival. A decrease in size of the tumors is indicative of anti-tumor activity of the hexosaminidase. Preferably, administration of the hexosaminidase results in a significant size reduction of the tumor. More preferably, the hexosaminidase eliminates the tumor from the SCID mouse. Preferably, such animals will remain free from tumors in the future.
One million LNCaP prostate cancer cells were injected into SCID mice. After the tumors grew to a size of between 0.3-0.6 cm^3, 5 units of Streptomyces chitinase was injected intratumorally, intraperitoneally and intravenously, in separate mice. […] All untreated animals died within 3 months.

[7] = test system: Moderately differentiated squamous cell carcinoma from human lung; experiment: Human lung cancer xenograft in SCID mice, tumor size; type: in vivo
Description: as §1
Moderately differentiated squamous cell carcinoma from human lung was obtained from patients as a biopsy sample and a 0.1 cm^3 piece of the biopsy was implanted into SCID mice. […] Subsequently, the size of the tumors was measured daily. […]

[8] = test system: Poorly differentiated carcinoma from human bladder; experiment: Human bladder cancer xenograft in SCID mice, tumor size; type: in vivo; details: 5 units injected into the tumor (day 1)
Description: as §1
Poorly differentiated carcinoma from human bladder was obtained from patients as a biopsy sample and a 0.1 cm^3 piece of the biopsy was implanted into SCID mice. […] Subsequently, the size of the tumors was measured daily.

[9] = test system: spleen cells from a normal mouse; experiment: MTT dye reduction viability assay, normal cells; type: cell-based; details: concentrations up to 1.0 units per ml of culture medium, 3 days, FIG. 1
Description: Different concentrations of the hexosaminidases are used. […] One method is the MTT assay.

[10] = Observation of treated mice for visible signs of systemic toxicity; type: in vivo; details: general statement; high chitinase levels do not appear to cause toxicity in normal tissues
Description: Such toxicity is compared with toxicity that is present in control animals, animals administered doxorubicin for example.

Large cell lymphoma = experiment: Human lymphoma xenograft in SCID mice, tumor size; type: in vivo; details: 5 units injected into the tumor (day 1), over a period of 7 days, FIG. 2
Description: as §1
Large cell lymphoma was obtained from patients as a biopsy sample and a 0.1 cm^3 piece of the biopsy was implanted into SCID mice. […] Subsequently, the size of the tumors was measured daily.

[11] = test system: Ductal carcinoma from breast; experiment: Human breast cancer xenograft in SCID mice, tumor size; type: in vivo; details: 5 units injected into the tumor (day 1)
Description: as §1
Ductal carcinoma from breast was obtained from patients as a biopsy sample and a 0.1 cm^3 piece of the biopsy was implanted into SCID mice. […] Subsequently, the size of the tumors was measured daily.

[12] = test system: prostate cancer LNCaP cells; experiment: Cultured tumor cells treated with chitinase, cellular damage; type: cell-based, human; details: within hours of treatment, ultimately leading to cell death
Malignant melanoma = experiment: Human malignant melanoma xenograft in SCID mice, tumor size; type: in vivo; details: 5 units injected into the tumor (day 1)
Description: as §1
Malignant melanoma was obtained from patients as a biopsy sample and a 0.1 cm^3 piece of the biopsy was implanted into SCID mice. […] Subsequently, the size of the tumors was measured daily.

[13] = test system: Merkel cell cancer (neuroendocrine skin cancer); experiment: Merkel cell cancer xenograft in SCID mice, tumor size; type: in vivo, human; details: 5 units injected into the tumor (day 1)
Description: as §1
Merkel cell cancer (neuroendocrine skin cancer) was obtained from patients as a biopsy sample and a 0.1 cm^3 piece of the biopsy was implanted into SCID mice. […] Subsequently, the size of the tumors was measured daily.

fibrosarcoma = experiment: Human fibrosarcoma xenograft in SCID mice, tumor size; type: in vivo; details: 5 units injected into the tumor (day 1)
Description: as §1
A fibrosarcoma was obtained from patients as a biopsy sample and a 0.1 cm^3 piece of the biopsy was implanted into SCID mice. […] Subsequently, the size of the tumors was measured daily.

[14] = test system: human oral carcinoma KB cells; details: 3 days culture at 37° C., MTT, FIG. 1
Description: Good results have been obtained by testing the effect of hexosaminidases on the viability of cultured normal and tumor cells is tested by culturing normal cells (e.g., spleen cells from a mouse) and tumor cells (e.g., human oral carcinoma KB cells) in vitro and then adding various concentrations of the hexosaminidase to the cells. Different concentrations of the hexosaminidases are used. At various times after addition of the hexosaminidase, the viability of the cells is determined using one of a variety of methods. One method is the MTT assay. In this assay, cells are exposed to MTT, 3-(4,5-dimethylthiazol-2-yl)2,5-diphenyltetrazolium bromide, which is taken into the cells and reduced by mitochondrial dehydrogenase to a purple formazan, a large molecule which is unable to pass through intact cell membranes, and therefore accumulates in healthy cells. The ability of cells to reduce MTT is an indication of mitochondrial integrity and activity, which is interpreted as a measure of viability.
Fifty thousand spleen cells from a normal mouse, or human oral carcinoma KB cells were cultured. […] This product was dissolved in a solvent (95% ethanol:DMSO; 1:1), added to the cells and the absorbance (540 nm) was determined. The absorbance of the formazan is linearly proportional to the number of viable cells in the culture.

[15] = test system: breast cancer MCF-7 cells; experiment: Cultured tumor cells treated with chitinase, cellular damage (electron micrographs); type: cell-based, human; details: within hours of treatment, ultimately leading to cell death
melanoma cells = experiment: as above; type: cell-based, human; details: within hours of treatment, ultimately leading to cell death
[16] = 5 units intratumorally, intraperitoneally and intravenously, in separate mice

COc1cccc2c1C(=O)c1c(O)c3c(c(O)c1C2=O)C[C@@](O)(C(=O)CO)C[C@@H]3O[C@H]1C[C@H](N)[C@H](O)[C@H](C)O1 [doxorubicin, reference compound]
anti-tumor effectiveness [1]: generally ineffective | outcome of mice evaluated ([1]; 5 mg per kilogram IP on days 5, 7 and 9): eventually died from drug toxicity or progressive tumor growth | course of tumor growth ([1]; 3 intraperitoneal injections of 5 mg/kg (maximum tolerated dose)): growth attenuation followed by a resumption of progressive growth

chitinase
dose dependence of anti-tumor activity ([1]; additional studies, increased with increasing dosages): dose dependent | regression of established tumors ([1]; intraperitoneal injection of 5 Units on day 5 and day 6): complete tumor regression | day until after which detectable growth of 24 JK sarcoma tumor cells was inhibited ([1]; single IP injection of 5 units five days after cell injection, FIG. 5): > 12 days | regression of established tumors ([1]; single intraperitoneal injection of 10 Units on day 5): complete tumor regression | period over which human colon cancer was effectively eliminated from the animals [2]: 2 days | maximum blood levels relative to those found in IV injection ([3]; IP injection): less than half | time at which maximum blood levels were reached ([3]; IP injection): 2 to 3 min | time until which blood levels tapered off ([3]; IP injection): 40 min | time until which maximum levels remained ([3]; IP injection): 7 to 8 min | time at which little chitinase was left in the blood ([3]; IV injection): 20 min | levels of chitinase in the blood immediately after injection ([3]; IV injection, within 1 min.): very high levels | maximum blood levels relative to blood levels found after IP injection ([3]; SC injection): a third | time at which maximum blood levels were reached ([3]; SC injection): 2 to 3 min | time until which blood levels tapered off ([3]; SC injection): 40 min | period over which prostate tumors were eliminated from the mouse [4]: 7 days | cellular damage after chitinase treatment (lung cancer cells): significant cellular damage | elimination of ovarian tumors compared with human colon cancer of Example 2 [5]: as effectively eliminated | histological staining of tumors compared to saline control tumors [6, 16]: extensive cellular damage and morphological changes | time after injection at which tumor necrosis was visible [6, 16]: within hours | tumor regression [6, 16]: complete tumor regression | survival of treated animals without tumor recurrence ([6]; 5 units, all untreated animals died within 3 months): more than one year | development of resistance of the tumors to the enzyme ([6]; additional studies): no indication of development of resistance | tumor elimination with an additional administration of chitinase after the first ([6]; additional studies): more rapidly eliminated | elimination of lung tumors compared with human colon cancer of Example 2 ([7]; 5 units injected into the tumor (day 1), SCID mice): as effectively eliminated | tumor size after chitinase treatment ([7]; 10 days after a single injection of 5 units, FIG. 3b): substantially reduced in size | elimination of bladder tumors compared with human colon cancer of Example 2 [8]: as effectively eliminated | effect on the viability of the normal mouse spleen cells [9]: little effect | systemic toxicity [10]: without significant systemic toxicity | change of lymphoma size (Large cell lymphoma): reduced in size | elimination of breast tumors compared with human colon cancer of Example 2 [11]: as effectively eliminated | cellular damage after chitinase treatment [12]: significant cellular damage | elimination of melanomas compared with human colon cancer of Example 2 (Malignant melanoma): as effectively eliminated | elimination of Merkel cell tumors [13]: eliminated | elimination of fibrosarcomas compared with human colon cancer of Example 2 (fibrosarcoma): as effectively eliminated | concentrations at which chitinase efficiently kills the tumor cells [14]: 0.025 to 0.05 units of chitinase per ml of culture medium | cellular damage after chitinase treatment [15]: significant cellular damage | cellular damage after chitinase treatment (melanoma cells): significant cellular damage
